Test results published in PubChem BioAssay AID651837 (Sanford-Burnham Center for Chemical Genomics, 2012).
Calls of active or inactive are those of the source.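 The calls were made as follows: active = compounds whose fitted half-inhibition dose is 9.7 micromolar or lower; inactive = the rest.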

Test system: Sufu-KO-LIGHT mouse cells, Gli-luciferase reporter luminescence
Experiment: Gli-SUFU pathway antagonists, Gli reporter, SAR follow-up, Sufu-KO-LIGHT mouse cells, luminescence, set 2 (AID 651837)

IC50	Structure (SMILES)
> 9.7 µM (inactive)	O=C(Nc1cc(N2CCOCC2)ncn1)c1ccccc1
> 9.7 µM (inactive)	O=C(Nc1cc(N2CCNCC2)ncn1)c1ccccc1
0.024 µM	CC1CCN(c2cc(NC(=O)c3ccccc3)ncn2)CC1
> 9.7 µM (inactive)	O=C(Nc1cc(N2CCCCC2)ncn1)c1ccccc1Cl
> 9.7 µM (inactive)	O=C(Nc1cc(N2CCSCC2)ncn1)c1ccccc1
> 9.7 µM (inactive)	CC(C)(C)OC(=O)N1CCN(c2cc(NC(=O)c3ccccc3)ncn2)CC1
0.023 µM	O=C(Nc1cc(N2CCCCC2)ncn1)c1ccccc1
0.035 µM	O=C(Nc1cc(N2CCCCCC2)ncn1)c1ccccc1
> 9.7 µM (inactive)	CC1CCCCN1c1cc(NC(=O)c2ccccc2)ncn1 (stereo not drawn)
> 9.7 µM (inactive)	CN1CCN(c2cc(NC(=O)c3ccccc3)ncn2)CC1

Further lines, the compound ahead of its results:

Structure (SMILES)	IC50
CC(C)Nc1cc(NC(=O)c2ccccc2)ncn1	> 9.7 µM (inactive)
O=C(Nc1cc(N2CCCCC2)ncn1)c1ccccc1C(F)(F)F	> 9.7 µM (inactive)
Cc1ccc(C(=O)Nc2cc(N3CCCCC3)ncn2)cc1	> 9.7 µM (inactive)
N#Cc1ccc(C(=O)Nc2cc(N3CCCCC3)ncn2)cc1	> 9.7 µM (inactive)
CC(C)CNc1cc(NC(=O)c2ccccc2)ncn1	> 9.7 µM (inactive)
CCCCN(C)c1cc(NC(=O)c2ccccc2)ncn1	> 9.7 µM (inactive)
CCC(C)Nc1cc(NC(=O)c2ccccc2)ncn1 (stereo not drawn)	> 9.7 µM (inactive)
CC(C)(C)Nc1cc(NC(=O)c2ccccc2)ncn1	> 9.7 µM (inactive)
CCOc1ccc(S(=O)(=O)NCc2ccncc2)cc1NC(=O)c1ccccc1	3.4 µM
COc1ccccc1C(=O)Nc1cc(N2CCCCC2)ncn1	> 9.7 µM (inactive)
O=C(Nc1cc(N2CCCCC2)ncn1)c1ccco1	> 9.7 µM (inactive)
N#Cc1cccc(C(=O)Nc2cc(N3CCCCC3)ncn2)c1	> 9.7 µM (inactive)
O=C(Nc1cc(N2CCCCC2)ncn1)c1ccc(Cl)cc1	> 9.7 µM (inactive)
CCOc1ccc(-c2nc(CSCC(=O)NC3CC3)c(C)o2)cc1	0.027 µM
O=C(Nc1cc(N2CCCCC2)ncn1)c1ccc(C(F)(F)F)cc1	> 9.7 µM (inactive)
O=C(Nc1cc(NCC2CCCO2)ncn1)c1ccccc1 (stereo not drawn)	> 9.7 µM (inactive)
CCCCNc1cc(NC(=O)c2ccccc2)ncn1	> 9.7 µM (inactive)
COc1cccc(C(=O)Nc2cc(N3CCCCC3)ncn2)c1	> 9.7 µM (inactive)
